In patent publication US20210113522A1, “COUMARIN DERIVATIVE AS ANTI-ASTHMATIC AGENT, PHARMACEUTICAL COMPOSITION THEREOF, ITS PREPARATION AND USE” (I-NOVA MEDICINSKA ISTRAZIVANJA D.O.O., priority 2017, published 2021):

Assays:
[1] = system: OVA-induced airway inflammation; assay: OVA model of lung eosinophilia: differential cell count of bronchoalveolar lavage (BAL) cells; type: in vivo, Balb/c mice; conditions: vs PBS-treated OVA mice; 1 2 mg/kg preventively or therapeutically, beclomethasone 1 mg/kg, via the airway
Experimental: The study was performed on female 8-week old Balb/c mice. The animals were kept under specific-pathogen-free (SPF) conditions with temperature control and HEPA system for breeding of laboratory animals. Experiments were performed during the light phase of the cycle. 40 mice (n=10/group) were separated into 4 groups:
Group 1: OVA only Group 2: OVA+BECLOMETHASONE (1 mg/kg) Group 3: OVA+Compound 1 (preventively; 2 mg/kg) Group 4: OVA+Compound 1 (therapeutically; 2 mg/kg)
Each group of mice was sensitized on days 0 and 14 with 20 μg/mouse of OVA adsorbed on 2 mg alum. On days 20, 21 and 22 the animals were stimulated with 100 μg/mouse OVA intranasally in a final volume of 50 μL/mouse.
The first group (the positive control) was injected with 0.1 M phosphate-buffered saline (PBS) only.
The second and third groups were treated preventively with compound 1 (2 mg/kg) or beclomethasone (1 mg/kg) on days 18-22 via the airway.
The fourth group was treated therapeutically with compound 1 (2 mg/kg) on days 23-25 via the airway.
We examined the effect of compound 1 treatment in the cell response on OVA-induced airway inflammation. OVA (100 μg/50 μL of PBS) was introduced intranasally (i.n.) 6 days after the second intraperitoneal (i.p.) sensitization with OVA. The treatment with compound 1 (preventively and therapeutically), beclomethasone or PBS only was performed according the treatment schedule; see FIG. 2.
Two days after the last i.n. challenge, BAL cells were collected, and differential cell counts were performed to identify the number of various infiltrating inflammatory cells, see FIGS. 3A, 3B.
Female 8-week old Balb/c mice were obtained from Harlan Farm (Blackthorn, UK). The animals were kept under specific-pathogen-free (SPF) conditions with temperature control and HEPA system for breeding of laboratory animals. The manipulations were approved by the Animal Care Commission at the Institute of Microbiology in accordance with the International regulations (EU Directive 2010/63/EU).
Experiments were performed during the light phase of the cycle. The animals were allowed to adapt to the laboratory for at least 1 h before testing and were used only once. 40 mice (n=10/group) were separated into 4 groups:
Group 1: OVA only Group 2: OVA+beclomethasone (1 mg/kg) Group 3: OVA+compound 1 (preventively; 2 mg/kg) Group 4: OVA+compound 1 (therapeutically; 2 mg/kg)
The experimental procedure was carried out as described in literature reference 22. The procedure is as follows: • (1) using scissors, a small incision in the neck skin on the trachea was made and the skin upwards was opened to expose the salivary glands; the trachea was exposed; • (2) a small semi-excision of the trachea was made to allow a 21-G lavage tube to pass into the trachea; • (3) collection of the lavage fluid—0.5 mL of sterile PBS was injected into the lung. The saline from the first lavage was aspirate; the procedure was repeated 5 times; • (4) all lavages were pooled and were centrifuge for 5 min. at 300×g/4° C. to pellet the cells; the supernatant was discarded; • (5) the pellet was re-suspended in 1.5 mL ice cold PBS and centrifuge for 5 min. at 300×g/4° C.; the supernatant was discarded; • (6) the pellet was re-suspended in 1.0 mL ice cold PBS and the cells were counted; • (7) 50 000 cells were placed on the slide for cytospin; • (8) the cytrospin was performed for 10 min at 700 rpm; and • (9) the slides were air-dried and proceeded to cell staining.
(§1) • (1) fix in Solution A (fixative); • (2) dip 5 times in Solution C (red); • (3) dip 5 times in Solution B (blue); • (4) rinse the slides in distilled water; • (5) air-drying of the slides; • (6) mounted the cover slides; and then • (7) 400 cells were counted under light microscopy. Histology Staining was then Performed as Follows: The lungs from all animals were fixed in 10% formalin (pH 7.4). […]

[2] = system: OVA-induced airway inflammation; assay: OVA model: lung histology (haematoxylin/eosin); type: in vivo, Balb/c mice; conditions: OVA-challenged mice; 1 2 mg/kg preventively or therapeutically, beclomethasone 1 mg/kg
Experimental: Lungs from the Balb/c mice from the test-groups were isolated and fixed in 10% formalin with […] of the same solution introduced intratracheally prior the overnight fixation. Paraffin sections from the lungs were analyzed using a standard haematoxylin/eosin staining technique.
as §1, with “7.4). Once fixed, tissue is processed as follows: • (1) 70% ethanol for 1 hour; • (2) 80% ethanol for 1 hour; • (3) 95% ethanol for 1 hour; • (4) first absolute ethanol for 1 hour; • (5) second absolute ethanol 1 hour; • (6) first clearing agent (xylene) for 1 hour; • (7) second clearing agent (xylene) for 1 hour; • (8) first wax at 58° C. for 1 hour; • (9) second wax at 58° C. for 1 hour; and • (10) embedding tissues in paraffin blocks. Tissues were sectioned using a microtome at 5 μm slices.” for “7.4).”

SMILES | Eosinophil infiltration into the lungs (BAL) [1] | Lymphocyte infiltration (BAL) [1] | Macrophages infiltration (BAL) [1] | Neutrophil infiltration (BAL) [1] | Eosinophil and other inflammatory cell infiltration in lung histology [2]
O=c1oc2cc(O)cc(O)c2c(O)c1-c1coc2c1c(=O)oc1cc(O)cc(O)c12 [Compound 1, 7,9-dihydroxy-3-(4,5,7-trihydroxy-2-oxo-2H-chromene-3-yl)-4H-furo[3,2-c]chromen-4-one] | strongly suppressed | stimulate | stimulate | stimulate | not observed
C[C@H]1C[C@H]2[C@@H]3CCC4=CC(=O)C=C[C@]4(C)[C@@]3(Cl)[C@@H](O)C[C@]2(C)[C@@]1(O)C(=O)CO [beclomethasone, reference compound] | suppressed | induced moderate | induced moderate | suppressed | not observed
